The results in this text go back to patent publication US4061645A, “2-Trichloromethyl-5-methylsulfinyl-1,3,4-thiadiazole” (Schering Aktiengesellschaft, priority 1972, dated 1977).

Test [1] relates to Rhizoctonia solani. Description: Limit concentration of soil-fungicidal effectiveness, Rhizoctonia solani, infested soil seeded with peas (Example 1). In kind it is in vivo. Particulars: soil, 480 h, 20 to 23 days, 22°-25° C, read-out: Limit concentration of the fungicidal effectiveness. The method, then:
Limit concentrations of the soil-fungicidal effectiveness at homogeneous mixture of the products with the infested soil. Basic condition in the evaluation are a sound root formation without fungus necroses and germination of the seed of at least 90% compared with the result obtained in steamed soil. Per concentration there were seeded 25 grains of peas of the variety "Miracle of Kelvedon" (marrow pea) without a waiting period. The cultivation time in the tests was 20 to 23 days at a temperature of 22°-25° C. Four commercial products were included in the test series.
Rhizoctania solani: -- Steamed compost soil was inoculated with mycelium of Rhizoctonia solani.

Test [2] concerns Meloidogyne incognita. Kind of test: Nematocidal action, infested compost soil, cucumber seeds (Example 8). In kind it is in vivo. Particulars: 30 days. The method, then: The products as 20% powder preparations were homogeneously admixed with a compost soil heavily infested by root gal nematodes. Without a waiting period, 20 cucumber seeds per concentration were seeded. After a cultivation time of 30 days at a temperature of 23°-25° C, the nematocidal action was evaluated by counting the root galls formed in the waterbath. The following table states the reduction of attack in percent. In the control, an average of 90 root galls per seedling had formed.

Test [3] has as its system Rhizoctonia solani. Kind of test: Rhizoctonia solani infested compost soil, marrow peas (Example 3). In kind it is in vivo. As to conditions: for Weight of fresh plant: 3 weeks; for Number of sound peas after 3 wks.: of 25 grains. From the text:
Steamed compost soil was inoculated with mycelium of Rhizoctonia solani. After homogeneous mixture of the products with the infested soil, the products were present in the form of 20% powder preparations, the seeding of 25 grains of marrow peas of the variety "Miracle of Kelvedon" per concentration was effected without waiting period in clay dishes holding 1 liter of soil. The table lists the number of germinated sound peas, the weight of the fresh plant, and a root evaluation after a cultivation period of three weeks at 22°-25° C.

Test [4] has as its system Fusarium oxysporum f. callistephi. Description: Fusarium infested compost soil, Callistephus chinesis seedlings (Example 5). Format: in vivo. As to conditions: of 4 seedlings. From the text: Steamed compost soil was inoculated with a spore suspension of Fusarium oxysporum f. callistephi. After homogeneous mixture of the products with the infested soil, the products were present as 20% powder preparations, and after a waiting period of 8 days, there were set out per concentration 4 seedlings of Callistephus chinesis, master aster "Sun Ray" as host plants.

Test [5] concerns Asperqilus niger. Description: Agar test (Example 7), Aspergillus. In kind it is cell-based. Particulars: 10 ppm; 5 days at 22° C; control 100. As for the experimental part: (§1) The fungicidal action of the agents according to the invention was tested in artificial nutrient media against plant-pathogenic fungi in Petri dishes (agar test). The procedure was to sterilize the medium consisting of 2% malt extract and 1.5% agar-agar powder. Before the solidification of the medium, the active substances were added to it, mixing thoroughly, so that the medium received 10 parts of active substance per million (ppm). After the solidification of the medium, the latter was inoculated with a platinum dropper which contained 100 spores each of the fungi to be tested, and after five days at 22° C, an evaluation was made by measuring the diameter of the colonies in mm.

For test [6], the system named is Botrytis cinerea. Description: Agar test (Example 7), Botrytis. Particulars: 10 ppm; 5 days at 22° C; control 100. In kind it is cell-based. As for the experimental part: as §1
Test [7] has as its system Colletotrichum gloeosporioides. Kind of test: Agar test (Example 7), Colletotrichum. In kind it is cell-based. Particulars: 10 ppm; 5 days at 22° C; control 100. The method, then:
as §1

The test system of test [8] is Helminthosporium sativum. Kind of test: Agar test (Example 7), Helminthosporium. Particulars: 10 ppm; 5 days at 22° C; control 100. Format: cell-based. As for the experimental part:
as §1

Test [9] concerns Stemphylium ilicis. Description: Agar test (Example 7), Stemphylium. Format: cell-based. As to conditions: 10 ppm; 5 days at 22° C; control 100. The method, then: as §1
The subject of test [10] is Pythium ultimum. Description: Pythium ultimum infested compost soil, marrow peas (Example 2). As to conditions: 200 mg active ingr. per liter of soil. Format: in vivo. The text has this:
Steamed compost soil was inoculated with mycelium of Pythium ultimum.

The mark [11] stands for this setting: 10 mg active ingr. per liter of soil.
Where [12] appears, read: 20 mg active ingr. per liter of soil.
[13] abbreviates: 30 mg active ingr. per liter of soil.
Setting [14] is: 50 mg active ingredient per liter of soil.
Setting [15] is: 100 mg active ingredient per liter of soil.

Each structure is given as a SMILES string.

Take `CC[S+]([O-])c1nnc(C(Cl)Cl)s1` (stereo not drawn) [Compound 4, 2-dichloromethyl-5-ethylsulfinyl-1,3,4-thiadiazole]: in test [1], the minimal effective concentration came to 20 µg/mL. Besides, the “Nematocidal action in % (reduction of attack)” value is given as 96% in test [2] (40 mg per liter of soil) and 99% in test [2] (60 mg per liter of soil).

Consider `CCC[S+]([O-])c1nnc(C(Cl)Cl)s1` (stereo not drawn) [Compound 5, 2-dichloromethyl-5-propylsulfinyl-1,3,4-thiadiazole], for which the minimal effective concentration in test [1] was determined as 20 µg/mL. The “Nematocidal action in % (reduction of attack)” value in test [2] (40 mg per liter of soil) is given as 90%; in [2] (60 mg per liter of soil), 98%.

Take `CC[S+]([O-])c1nnc(C(Cl)(Cl)Cl)s1` (stereo not drawn) [Compound 9, 2-trichloromethyl-5-ethylsulfinyl-1,3,4-thiadiazole]: the minimal effective concentration in test [1] was determined as 10 µg/mL. The “Weight of fresh plant” value amounted to 18 g in [3] (setting [11]), 16 g in [3] (setting [12]) and 17 g in [3] (setting [13]). The “Number of sound peas after 3 wks.” value came out at 22 in test [3] (setting [11]), 22 in test [3] (setting [12]) and 23 in [3] (setting [13]). The “Number of attacked plants after 3 weeks” value in [4] (setting [14]) and in [4] (setting [15]) was 0 in each case. The “diameter of the colonies” value in [5], in [6], in test [7], in test [8] and in [9] was 0 mm each time.

In the case of `CCS(=O)(=O)c1nnc(C(Cl)Cl)s1` [Compound 18, 2-dichloromethyl-5-ethylsulfonyl-1,3,4-thiadiazole], in test [1], the minimal effective concentration amounted to 100 µg/mL. Further, the “diameter of the colonies” value in [5] came out at 0 mm; in test [6] it was 13 mm; in test [7], 41 mm; in test [8], 0 mm; in [9], 0 mm. In addition, the “Nematocidal action in % (reduction of attack)” value in test [2] (40 mg per liter of soil) was determined as 61%; in [2] (60 mg per liter of soil) it was 90%.

Take `CCS(=O)(=O)c1nnc(C(Cl)(Cl)Cl)s1` [Compound 22, 2-trichloromethyl-5-ethylsulfonyl-1,3,4-thiadiazole]: the minimal effective concentration in test [1] came out at 50 µg/mL. Further, the “Number of attacked plants after 3 weeks” value in [4] (setting [14]) and in [4] (setting [15]) was 0 throughout. Also, the “diameter of the colonies” value in test [5], in [6], in [7], in test [8] and in test [9] was 0 mm in each case.

Turning to `CCCS(=O)(=O)c1nnc(C(Cl)(Cl)Cl)s1` [Compound 23, 2-trichloromethyl-5-propylsulfonyl-1,3,4-thiadiazole], the minimal effective concentration in test [1] came out at 30 µg/mL. The entries for the “Weight of fresh plant” value in [3] (setting [11]), in [3] (setting [12]) and in test [3] (setting [13]) were 9 g, 17 g and 20 g, respectively. The “Number of sound peas after 3 wks.” value in test [3] (setting [11]) came to 13; in test [3] (setting [12]), 21; in test [3] (setting [13]), 24. The “diameter of the colonies” value in test [5], in [6], in [7], in test [8] and in test [9] was 0 mm in each case.

On to `CC(C)S(=O)(=O)c1nnc(C(Cl)(Cl)Cl)s1` [Compound 24, 2-trichloromethyl-5-isopropylsulfonyl-1,3,4-thiadiazole], for which, in test [1], the minimal effective concentration worked out at 30 µg/mL. For the same molecule, the “diameter of the colonies” value in test [5], in test [6], in test [7], in [8] and in test [9] was 0 mm each time.

Regarding `CCCCS(=O)(=O)c1nnc(C(Cl)(Cl)Cl)s1` [Compound 25, 2-trichloromethyl-5-butylsulfonyl-1,3,4-thiadiazole], the minimal effective concentration in test [1] stood at 25 µg/mL. The “Number of attacked plants after 3 weeks” value in [4] (setting [14]) and in [4] (setting [15]) was 0 in each case. Moreover, the “diameter of the colonies” value in test [5], in [6], in test [7], in test [8] and in test [9] was 0 mm throughout.

As to `CCCCCS(=O)(=O)c1nnc(C(Cl)(Cl)Cl)s1` [Compound 26, 2-trichloromethyl-5-amylsulfonyl-1,3,4-thiadiazole], the minimal effective concentration in test [1] turned out to be 25 µg/mL. Besides, the “diameter of the colonies” value in [5], in test [6], in test [7], in [8] and in [9] was 0 mm throughout.

Regarding `CCCCCCS(=O)(=O)c1nnc(C(Cl)(Cl)Cl)s1` [Compound 27, 2-trichloromethyl-5-hexylsulfonyl-1,3,4-thiadiazole], in [1], the minimal effective concentration was determined as 25 µg/mL. In addition, the “diameter of the colonies” value in test [5], in test [6], in test [7], in [8] and in test [9] was 0 mm throughout.

As for `CCCCCCCS(=O)(=O)c1nnc(C(Cl)(Cl)Cl)s1` [Compound 28, 2-trichloromethyl-5-heptylsulfonyl-1,3,4-thiadiazole], the minimal effective concentration in [1] turned out to be 200 µg/mL. The “diameter of the colonies” value in test [5], in [6], in test [7], in test [8] and in [9] was 0 mm throughout.

Consider `CCCCCCCCS(=O)(=O)c1nnc(C(Cl)(Cl)Cl)s1` [Compound 29, 2-trichloromethyl-5-octylsulfonyl-1,3,4-thiadiazole], for which the minimal effective concentration in test [1] is more than 200 µg/mL. The “diameter of the colonies” value in test [5] was found to be 19 mm; in test [6], 18 mm; in [7], 0 mm; in [8], 0 mm; in test [9] it was 0 mm.

With `CS(=O)(=O)c1nnc(C(Br)Br)s1` [Compound 32, 2-dibromomethyl-5-methylsulfonyl-1,3,4-thiadiazole], the minimal effective concentration in test [1] was found to be 50 µg/mL. Further, the “diameter of the colonies” value in test [5], in [6], in [7], in [8] and in [9] was 0 mm each time.

Regarding `S=C([S-])NCCNC(=S)[S-].[Zn+2]` [Zinc ethylene-bis-dithiocarbamate, zinc-ethylene-bis-dithiocarbamate, reference compound], the “Weight of fresh plant” value in test [10] (3 weeks) is 7 g. Moreover, the “Number of sound peas after 3 wks.” value in test [10] (of 25 grains) turned out to be 14. The “diameter of the colonies” value in [5] is 78 mm; in test [6], 36 mm; in test [7], 81 mm; in test [8], 50 mm; in test [9], 55 mm.
